According to US6028110A, “Succinyl hydroxamic acid, N-formyl-N-hydroxy amino carboxylic acid and succinic acid amide derivatives as metalloprotease inhibitors” (British Biotech Pharmaceuticals Ltd., priority 1994, dated 2000):
Counter-ions that a name gives are not always drawn.

What was measured:
[1] = tested on: collagenase; test: Inhibition of collagenase (acetylated 14C collagen, Cawston and Barrett); format: biochemical; conditions: 37°, 16 hours, pH 7.5
Description: The collagen was acetylated ^14 C collagen prepared by the method of Cawston and Murphy, (Methods in Enzymology, 80, 711, 1981), hereby incorporated by reference. The samples were centrifuged to sediment undigested collagen, and an aliquot of the radioactive supernatant removed for assay on a scintillation counter as a measure of hydrolysis. […] For weak inhibitors, the percentage inhibition (% I) at a concentration of 100 μM is given.

[2] = tested on: human PUMP-1 (matrilysin); test: Inhibition of human PUMP-1 (matrilysin) ([14C]-casein degradation assay); format: biochemical; conditions: 16 hours at 37° C, recombinant human PUMP-1 expressed in CHO cells
Description: Recombinant human PUMP-1 was expressed in CHO cells and purified by heparin-agarose and Procion Red chromatography. A [^14 C]-casein degradation assay was used to measure PUMP-1 activity. […] The incubation was terminated by addition of trichloroacetic acid (final concentration 10%) and the substrate was separated from the TCA-soluble degradation products by centrifugation at 10,000 g for 15 minutes. […] The inhibitors were dissolved and diluted in DMSO. […] For weak inhibitors, the percentage inhibition (% I) at a concentration of 100 μM is given.

SMILES	Collagenase % Inhibition @ 100 μM [1]	PUMP % Inhibition @ 100 μM [2]
CCCCCCCCCCCCCCCC[C@H](CC(=O)O)C(=O)N[C@@H](Cc1ccccc1)C(=O)NC [Example 1, 3R-(1S-Methylcarbamoyl-2-phenyl-ethylcarbamoyl)nonadecanoic acid (dicyclohexylamine salt)]	0 % I	20 % I
CCCCCCCCCCCC[C@H](CC(=O)O)C(=O)N[C@@H](Cc1ccccc1)C(=O)NC [Comparator Example A, 3R-(1S-Methylcarbamoyl-2-phenyl-ethylcarbamoyl)-pentadecanoic acid]	30 % I	10 % I
